Measurements as given in ChEMBL document CHEMBL1201862, “PubChem BioAssay data set” (2004).
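Method: 48-hour compound exposure of cells in 96-well plates, five concentrations, linear interpolation of endpoints. GI50 = concentration required for 50% inhibition of growth.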 Active and inactive are the calls of the source. No stated cut-off is given here; in the data, active = GI50 up to about 1.1 µM and inactive = higher.

How the values were obtained:
Assay in all cases: NCI tumour cell line growth inhibition, 48 h
UACC-257 = tested on: UACC-257
OVCAR-4 = tested on: OVCAR-4
HL-60 = tested on: HL-60
TK-10 = tested on: TK-10
SNB-75 = tested on: SNB-75
KM12 = tested on: KM12
U-251 = tested on: U-251
Malme-3M = tested on: Malme-3M
SK-MEL-28 = tested on: SK-MEL-28
IGROV-1 = tested on: IGROV-1
MOLT-4 = tested on: MOLT-4
LOX IMVI = tested on: LOX IMVI
OVCAR-5 = tested on: OVCAR-5
SF-295 = tested on: SF-295
786-0 = tested on: 786-0
A549 = tested on: A549
K562 = tested on: K562
COLO 205 = tested on: COLO 205
ACHN = tested on: ACHN
MCF7 = tested on: MCF7

Row | SMILES | GI50 (UACC-257) | GI50 (OVCAR-4) | GI50 (HL-60) | GI50 (TK-10) | GI50 (SNB-75) | GI50 (KM12) | GI50 (U-251) | GI50 (Malme-3M) | GI50 (SK-MEL-28) | GI50 (IGROV-1) | GI50 (MOLT-4) | GI50 (LOX IMVI) | GI50 (OVCAR-5) | GI50 (SF-295) | GI50 (786-0) | GI50 (A549) | GI50 (K562) | GI50 (COLO 205) | GI50 (ACHN) | GI50 (MCF7)
1 | CCCCCN(CCCCC)C(=O)[C@@H](CCC(=O)O)NC(=O)c1cc2ccccc2[nH]1 | 49.4 µM (inactive) | 44 µM (inactive) | 24.1 µM (inactive) | 46.6 µM (inactive) | 12.3 µM (inactive) | 39.3 µM (inactive) | 29.1 µM (inactive) | 35.4 µM (inactive) | 21.4 µM (inactive) | 44 µM (inactive) | 21.5 µM (inactive) | 59.3 µM (inactive) | > 100 µM (inactive) | 33.9 µM (inactive) | 46.5 µM (inactive) | 39.3 µM (inactive) | 36.5 µM (inactive) | 30.9 µM (inactive) | 30.5 µM (inactive) | 
2 | CCCCC(C)C(OC(=O)CC(CC(=O)O)C(=O)O)C(CC(C)CC(O)CCCCC(O)CC(O)C(C)N)OC(=O)CC(CC(=O)O)C(=O)O (stereo not given) | > 100 µM (inactive) | > 100 µM (inactive) | > 69.8 µM (inactive) | > 100 µM (inactive) | > 78.3 µM (inactive) | > 100 µM (inactive) | > 100 µM (inactive) | > 100 µM (inactive) | > 100 µM (inactive) | > 100 µM (inactive) | > 100 µM (inactive) | > 100 µM (inactive) | > 100 µM (inactive) | > 100 µM (inactive) | > 100 µM (inactive) | > 100 µM (inactive) | > 100 µM (inactive) | > 100 µM (inactive) | > 100 µM (inactive) | 
3 | N#C[C@H](C(=O)c1ccccc1F)c1nc2ccccc2[nH]1 | > 100 µM (inactive) | > 100 µM (inactive) |  | > 100 µM (inactive) | 82.6 µM (inactive) | 96.2 µM (inactive) | > 100 µM (inactive) |  | > 100 µM (inactive) | 60.7 µM (inactive) | > 100 µM (inactive) | > 100 µM (inactive) | > 100 µM (inactive) | > 100 µM (inactive) | > 100 µM (inactive) | > 100 µM (inactive) | > 100 µM (inactive) | > 100 µM (inactive) | > 100 µM (inactive) | 92 µM (inactive)
4 | COc1cc(CCC(=O)NS(=O)(=O)c2ccccc2)cc(OC)c1OC | > 100 µM (inactive) | > 100 µM (inactive) | > 100 µM (inactive) | > 100 µM (inactive) | 61.4 µM (inactive) | > 100 µM (inactive) | > 100 µM (inactive) | > 100 µM (inactive) | > 100 µM (inactive) | > 100 µM (inactive) | > 100 µM (inactive) | > 100 µM (inactive) | > 100 µM (inactive) | > 100 µM (inactive) | > 100 µM (inactive) | > 100 µM (inactive) | > 100 µM (inactive) | > 100 µM (inactive) | > 100 µM (inactive) | 
5 | NNC(=O)/C(=C/c1ccc(Cl)cc1Cl)NC(=O)c1ccccc1 | > 100 µM (inactive) | > 100 µM (inactive) | > 100 µM (inactive) | > 100 µM (inactive) | > 100 µM (inactive) | > 100 µM (inactive) | > 100 µM (inactive) | > 100 µM (inactive) | > 100 µM (inactive) | > 100 µM (inactive) | 60.5 µM (inactive) | > 100 µM (inactive) | > 100 µM (inactive) | > 100 µM (inactive) | > 100 µM (inactive) | > 100 µM (inactive) | 71.4 µM (inactive) | > 100 µM (inactive) | > 100 µM (inactive) | 
6 | O=c1ncccn1[C@@H]1O[C@H](CO)[C@H](O)C1O (stereo not given in full) | > 100 µM (inactive) | > 100 µM (inactive) | 47.3 µM (inactive) | > 100 µM (inactive) | 53.8 µM (inactive) | > 100 µM (inactive) | > 100 µM (inactive) | > 100 µM (inactive) | > 100 µM (inactive) | > 100 µM (inactive) | 61.7 µM (inactive) | > 61.8 µM (inactive) | > 100 µM (inactive) | > 100 µM (inactive) | > 78 µM (inactive) | > 89.5 µM (inactive) | 52.4 µM (inactive) | > 88.7 µM (inactive) | > 100 µM (inactive) | 
7 | COC(=O)C1=C(C(=O)OC)N(C(C)C)[C@H]2C(C(=O)OC)=C(C(=O)OC)N(C(C)C)[C@@H]12 | > 100 µM (inactive) | > 100 µM (inactive) | 61.5 µM (inactive) | > 100 µM (inactive) | 93.3 µM (inactive) | > 100 µM (inactive) | > 100 µM (inactive) | > 100 µM (inactive) | > 100 µM (inactive) | > 100 µM (inactive) | 71 µM (inactive) | > 100 µM (inactive) | > 100 µM (inactive) | > 100 µM (inactive) | > 100 µM (inactive) | > 100 µM (inactive) | > 100 µM (inactive) | > 100 µM (inactive) | > 100 µM (inactive) | 
8 | N#Cc1c(CC(=O)O)cc(=O)n2c1[nH]c1ccccc12 | > 100 µM (inactive) | > 100 µM (inactive) | > 100 µM (inactive) | > 100 µM (inactive) | > 100 µM (inactive) | > 100 µM (inactive) | > 100 µM (inactive) | > 100 µM (inactive) | > 100 µM (inactive) | > 100 µM (inactive) | > 100 µM (inactive) | > 100 µM (inactive) | > 100 µM (inactive) | > 100 µM (inactive) | > 100 µM (inactive) | > 100 µM (inactive) | > 100 µM (inactive) | > 100 µM (inactive) | > 100 µM (inactive) | 
9 | c1ccc(C2CC(NC3CCCCC3)=Nc3ccccc3N2)cc1 (stereo not given) | 47.5 µM (inactive) | > 100 µM (inactive) | 25.8 µM (inactive) | > 100 µM (inactive) | 16.4 µM (inactive) | 40.8 µM (inactive) | 56.9 µM (inactive) | 15.6 µM (inactive) | 45.2 µM (inactive) | 27.7 µM (inactive) | 17.7 µM (inactive) | 20.4 µM (inactive) | 78.2 µM (inactive) | 44 µM (inactive) | > 100 µM (inactive) | > 100 µM (inactive) | 19.3 µM (inactive) | 24.2 µM (inactive) | > 100 µM (inactive) | 
10 | CN1C(=O)CC(c2cccc(C3CC(=O)N(C)C3=O)n2)C1=O (stereo not given) | > 100 µM (inactive) | > 100 µM (inactive) | > 100 µM (inactive) | > 100 µM (inactive) | > 100 µM (inactive) | > 100 µM (inactive) | > 100 µM (inactive) | > 100 µM (inactive) | > 100 µM (inactive) | > 100 µM (inactive) | > 100 µM (inactive) | > 100 µM (inactive) | > 100 µM (inactive) | > 100 µM (inactive) | > 100 µM (inactive) | > 100 µM (inactive) | > 100 µM (inactive) | > 100 µM (inactive) | > 100 µM (inactive) | 
11 | COc1ccc(/C=C/C(=O)c2c(-c3ccccc3)nn(C)c(=O)c2N2CC2C)cc1 (stereo not given) | 42.2 µM (inactive) | 27.9 µM (inactive) | 17.5 µM (inactive) | 41.1 µM (inactive) | 24.8 µM (inactive) | 30.3 µM (inactive) | 27.9 µM (inactive) | 35.7 µM (inactive) | 52.6 µM (inactive) | 59.3 µM (inactive) | 25.5 µM (inactive) | 16.3 µM (inactive) | 37.6 µM (inactive) | 33.8 µM (inactive) | 36.4 µM (inactive) | 43.2 µM (inactive) | 26.2 µM (inactive) | 34.3 µM (inactive) | 36.2 µM (inactive) | 
12 | [O-][Cl+3]([O-])([O-])[O-].c1ccc(-c2csc3c4ccccc4c4ccccc4[n+]23)cc1 | 1.08 µM (active) | 3.96 µM (inactive) | 1.91 µM (inactive) | 13.6 µM (inactive) | 2.35 µM (inactive) | 1.47 µM (inactive) | 2.45 µM (inactive) | 1.58 µM (inactive) | 2.7 µM (inactive) | 3.95 µM (inactive) | 2.18 µM (inactive) | 4.58 µM (inactive) | 14.3 µM (inactive) | 1.14 µM (inactive) | 4.85 µM (inactive) | 2.17 µM (inactive) | 0.708 µM (active) | 2.25 µM (inactive) | 10.2 µM (inactive) | 
13 | COC(=O)C(Cc1nc2ccc(Cl)cc2nc1O)C(=O)C(=O)Nc1cc(C)ccc1C (stereo not given) | > 100 µM (inactive) | > 100 µM (inactive) | > 100 µM (inactive) | > 100 µM (inactive) | > 100 µM (inactive) | > 100 µM (inactive) | > 100 µM (inactive) | > 100 µM (inactive) | > 100 µM (inactive) | > 100 µM (inactive) | > 100 µM (inactive) | > 100 µM (inactive) | > 100 µM (inactive) | > 100 µM (inactive) | > 100 µM (inactive) | > 100 µM (inactive) | > 100 µM (inactive) | > 100 µM (inactive) | > 100 µM (inactive) | 
14 | O=C1c2ccccc2C(=O)c2cc3c(cc21)C[S+]([O-])C3 | > 100 µM (inactive) | > 100 µM (inactive) | > 100 µM (inactive) | > 100 µM (inactive) | > 100 µM (inactive) | > 100 µM (inactive) | > 100 µM (inactive) | > 100 µM (inactive) | > 100 µM (inactive) | > 100 µM (inactive) | > 100 µM (inactive) | > 100 µM (inactive) | > 100 µM (inactive) | > 100 µM (inactive) | > 100 µM (inactive) | > 100 µM (inactive) | > 100 µM (inactive) | > 100 µM (inactive) | > 100 µM (inactive) | 
